Assays:
[1] = test system: fibroblasts as donor cells; conditions: donor fibroblasts cultured with agent prior to nuclear transfer; Non-patent Document 1; cited from earlier work
[2] = test system: cloned embryos derived from cumulus cells; experiment: Methylation of DNA and histone H3 Lys9 in cloned embryos; assay type: cell-based, mouse; conditions: 500 nM TSA for 15 hours; FIG. 9
Protocol: Cloned embryos derived from cumulus cells were produced using oocytes from B6D2F1 mice produced according to the method as described in Example 1, and cultured in the presence or absence of 500 nM TSA for 15 hours (including the activation period). Then, the nuclear transfer embryos were fixed, and methylation of DNA (DNA metC) and methylation of histone H3 Lys9 (H3K9 trimet) were examined using antibodies against the respective antigens. Furthermore, DNA was stained with DAPI. 15 cloned embryos were used for each group. The results are shown in FIG. 9 along with the merged images (Merge).

[3] = test system: oocytes injected with nuclear domains of round spermatids (ROSI); experiment: Paternal genome DNA methylation, spermatid injection (ROSI); assay type: cell-based, mouse; conditions: 500 nM TSA
Protocol: The oocytes injected with the nuclear domains of round spermatids obtained by ROSI were cultured for 20 hours in the presence of 20 ng/ml of demecolcine in a medium containing 10 μM 5-azacytidine (5-aza) or 500 nM TSA as an anti-methylation agent. Similarly, injection of mature sperms was carried out (ICSI (intracytoplasmic sperm injection)). Specifically, heads of sperms were separated from the tails by applying pulses to the head-tail junctions by means of a piezo-driven pipette (PrimeTech), and injected into oocytes. The oocytes were not subjected to activation in this case.
The cultured oocytes injected with nuclei were fixed in PBS containing 4% paraformaldehyde at 4° C. overnight, washed in PBS containing 0.1% polyvinyl alcohol (PVA), and blocked in PBS containing 3% bovine serum albumin (BSA) and 0.2% Triton X-100 at 4° C. overnight. Subsequent steps were carried out at room temperature. The fixed oocytes injected with nuclei were permeabilized by treating with 0.2% Triton X-100 in PBS at room temperature. The oocytes were then treated with 2N HCl at room temperature for 50 minutes, neutralized in 100 mM Tris-HCl buffer (pH 8.0) (Non-patent Document 15), and extensively washed with PBS containing 1% BSA.
Next, incubation. with an anti-5-methylcytidine antibody (Eurogentec) in PBS containing 0.1% PVA was carried out for 2 to 3 hours. After extensively being washed, oocytes were stained with Alexa Flour-488 secondary antibody (Molecular Probes), stained with 5 μg/ml 4′,6′-diamidino-2-phenylindole (DAPI) for 30 minutes, and mounted using Vectashield (Vector Laboratory). The specimens were observed using Olympus BX51 microscope (Olympus). All images were captured with DP70 Olympus digital camera using Olympus Analysis software to apply colors to DAPI-stained DNA and merged images.
For quantitative analysis of pronuclear DNA methylation levels, fluorescence images were subjected to densitometric analysis using the program Image-J from the National Institute of Health (http://rsb.info.nih.gov/ij/). For each pronucleus, the relative intensity of methylation of the paternal genome was calculated as a percentage of the fluorescence intensity of the maternal genome. In Table 3, data with (b) and without (a) anti-methylation agent were statistically analyzed by Scheffe tests for multiple mean comparisons using the statistical program SPSS version 12.0 (SPSS Inc.). All percentile data were subjected to arcsine transformation prior to the statistical analysis.

[4] = test system: oocytes after fertilization; conditions: treatment of oocytes after fertilization; Non-patent Document 3; cited from earlier work
[5] = test system: oocytes injected with nuclear domains of round spermatids; experiment: Birth rate after round spermatid injection (ROSI); assay type: in vivo, mouse
Protocol: The effect of the TSA treatment according to the present invention on round spermatid injection (ROSI) was examined. ROSI was carried out according to the method as described in Non-patent Document 13.
Briefly, human choriogonadotropin (hCG) was first administered to female B6D2F1 mice (Japan SLC). Oocytes were collected after 16 hours and placed in a CZB medium. The oocytes were then transferred to a KSOM medium and incubated at 37° C. under 5% CO2.
The oocytes were activated by incubation in Ca^2+-free CZB medium supplemented with 5 mM strontium chloride (SrCl2) for 20 minutes. After 40 to 80 minutes, the oocytes were injected with the nuclear domains of round spermatids (characterized by diameters of about 10 μm and centrally located distinct nucleoli; see Non-patent Document 14) collected from a male C57BL/6 mouse (Japan SLC).
The oocytes injected with nuclei were transferred to KSOM medium containing 5 nM TSA, and further transferred to KSOM medium without TSA 10 hours after the initiation of activation.
Embryos at the 2-cell stage were implanted into oviducts of pseudopregnant mice (surrogate mothers, day 0.5) on the day after the spermatid injection. Fetuses were obtained by cesarean section 19 days after the embryo implantation. The ratio of the number of born fetuses to the number of implanted embryos (birth rate) was determined.

nuclear transfer embryos = experiment: Birth rate of cloned mice after implantation of treated nuclear transfer embryos; assay type: in vivo, mouse
Protocol: Based on the results of Example 3, the effect of the TSA treatment on the fetus birth rate was examined. […] after the initiation of activation and transferred to KSOM medium without TSA, and the nuclear transfer embryos transferred to KSOM medium without TSA were cultured in this medium until implantation. For producing cloned mice, embryos at the 2-cell stage were implanted into oviducts of pseudopregnant mice (surrogate mothers, day 0.5) on the day after the nuclear transfer. The pseudopregnancy treatment was carried out by mating a ICR female mouse (in estrus) with an ICR vasectomized male mouse on a one-to-one basis. The successful mating was confirmed based on the presence of plug formation. Cloned mice were delivered by cesarean section 19 days after the embryo transfer into oviduct. The ratio of the number of born cloned mouse fetuses to the number of implanted embryos (birth rate) was determined. Cloned mouse fetuses and placentas immediately after birth (left), and cloned mice (black) and a surrogate mother (white) after three weeks (right) are shown in FIG. 6.

[6] = test system: oocytes into which nuclei from fibroblasts were transferred; experiment: Expanded blastocyst formation, fibroblasts as donor cells; assay type: cell-based, mouse; conditions: fibroblast donor nuclei; 50 nM TSA for 20 hours; FIG. 8
Protocol: A procedure similar to that described in Example 1 was carried out using fibroblasts or embryonic stem cells (ES cells) as donor cells in place of cumulus cells. Fibroblasts were obtained by culturing a fragment of mouse tail (Non-patent Document 11). E14 cells were used as ES cells (Non-patent Document 12).
Oocytes into which nuclei from the donor cells were transferred were treated with TSA for 20 hours, and cultured in KSOM medium without TSA until 96 hours after the initiation of activation. Then, development into expanded blastocysts was observed and the blastocyst formation rate was determined. 30 or more embryos were examined in each of the experimental groups of the respective cells.

## CC(/C=C/C(=O)NO)=C\[C@@H](C)C(=O)c1ccc(N(C)C)cc1 [TSA, trichostatin A]
[1]
  blastocyst development rate: increased
[2]
  methylation of DNA and histone H3 Lys9 in other chromosomal portions: reduction in methylation of both was observed
  methylation of DNA and histone H3 Lys9 in the pericentromeric region: prominent reduction was not observed
[3]
  majority of the methylation of the paternal genome, response to TSA treatment: sensitive
  methylation of the maternal genome, response to TSA treatment: resistant
[3]; region with high methylation of histone H3 Lys9
  methylation of DNA in the pericentromeric region, response to TSA: resistant
[3]; Spermatid (ROSI), 20 hours
  Ratio of methylation level of paternal genome to maternal genome (%): 42.5^b %
[4]
  development rate: reduced
[5]; TSA 5 nM
  increase in birth rate vs control without TSA: about 4 fold
[5]; TSA 5 nM until 10 hours after initiation of activation
  Birth rate (%): 26.3%
[5]; TSA 5 nM until 10 hours after initiation of activation, 38 implanted embryos
  Birth number: 10
Nuclear transfer embryos; TSA 5 nM, treatment time 10 h
  Birth rate (%): 6.2%
Nuclear transfer embryos; TSA 5 nM, treatment time 10 h, 289 implanted embryos
  Number of born fetuses: 18
Nuclear transfer embryos; TSA 5 nM, treatment time 20 h
  Birth rate (%): 3.2%
Nuclear transfer embryos; TSA 5 nM, treatment time 20 h, 274 implanted embryos
  Number of born fetuses: 9
Nuclear transfer embryos; TSA 50 nM, treatment time 10 h
  Birth rate (%): 7.7%
Nuclear transfer embryos; TSA 50 nM, treatment time 10 h, 91 implanted embryos
  Number of born fetuses: 7
Nuclear transfer embryos; TSA 50 nM, treatment time 20 h
  Birth rate (%): 2.5%
Nuclear transfer embryos; TSA 50 nM, treatment time 20 h, 81 implanted embryos
  Number of born fetuses: 2
Nuclear transfer embryos; TSA treatment for 10 hours or 20 hours
  birth rate vs control: increased
[6]
  blastocyst development rate compared with the case without TSA: higher

— patent US20090055945A1, “Method for Producing Nuclear-Transplanted Egg” (priority 2005, published 2009)
